Consider one molecule from patent US8933098B2, “Dimethyl-benzoic acid compounds” (Eli Lilly and Company, priority 2012, dated 2015).

One may read the IC50 as the concentration at which inhibition is half-maximal. Usually Ki stands for a measure of affinity in units of concentration, obtained from inhibition or displacement.

In one experiment the target is rat EP4 (Rattus norvegicus (Rat), UniProt P43114). Nature of the experiment: In vitro rat EP4 functional antagonist activity (PGE2-stimulated cAMP, HTRF). Type of experiment: cell-based. The conditions noted are these: inhibition of PGE2-stimulated (EC80) cAMP production, HEK293 cells expressing rat EP4; read-out: IC50 measured at rat EP4. For orientation: TR-FRET usually uses a lanthanide donor and a delayed reading to cut background.
rat EP4, sequence (P43114 whole entry): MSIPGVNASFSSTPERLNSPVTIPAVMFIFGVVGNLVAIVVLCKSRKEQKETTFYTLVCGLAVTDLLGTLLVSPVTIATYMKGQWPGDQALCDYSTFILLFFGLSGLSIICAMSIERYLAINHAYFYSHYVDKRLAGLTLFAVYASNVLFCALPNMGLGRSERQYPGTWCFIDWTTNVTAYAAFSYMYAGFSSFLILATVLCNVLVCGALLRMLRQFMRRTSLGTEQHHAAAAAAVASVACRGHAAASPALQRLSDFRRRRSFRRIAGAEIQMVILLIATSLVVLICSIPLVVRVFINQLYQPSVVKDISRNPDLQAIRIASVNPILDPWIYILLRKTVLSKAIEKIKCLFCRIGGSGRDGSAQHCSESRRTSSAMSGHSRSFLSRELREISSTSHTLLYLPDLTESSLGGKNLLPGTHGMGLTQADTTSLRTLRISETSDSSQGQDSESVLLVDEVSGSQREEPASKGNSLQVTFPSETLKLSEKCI

For the next experiment, the target named is human EP1 (Homo sapiens (Human), UniProt P34995). Nature of the experiment: In vitro binding to human EP1, [3H]-PGE2 displacement on membranes. Particulars: HEK293 membranes, n = 1, read-out: hEP1, Ki. On the procedure: (§1) hEP1 and hEP4 membranes are prepared from recombinant HEK293 cells stably expressing human EP1 (Genbank accession number AY275470) or EP4 (Genbank accession number AY429109) receptors. hEP2 and hEP3 membranes are prepared from HEK293 cells transiently transfected with EP2 (Genbank accession number AY275471) or EP3 (isoform VI: Genbank accession number AY429108) receptor plasmids. Frozen cell pellets are homogenized in homogenization buffer using a Teflon/glass homogenizer. Membrane protein is aliquoted and quick frozen on dry ice prior to storage at −80° C. Homogenization buffer contained 10 mM Tris-HCl, pH 7.4, 250 mM sucrose, 1 mM EDTA, 0.3 mM indomethacin and plus Complete™, with EDTA, obtained from Roche Molecular Biochemicals (Catalog Number 1 697 498).
human EP1, sequence (P34995 whole entry, canonical isoform): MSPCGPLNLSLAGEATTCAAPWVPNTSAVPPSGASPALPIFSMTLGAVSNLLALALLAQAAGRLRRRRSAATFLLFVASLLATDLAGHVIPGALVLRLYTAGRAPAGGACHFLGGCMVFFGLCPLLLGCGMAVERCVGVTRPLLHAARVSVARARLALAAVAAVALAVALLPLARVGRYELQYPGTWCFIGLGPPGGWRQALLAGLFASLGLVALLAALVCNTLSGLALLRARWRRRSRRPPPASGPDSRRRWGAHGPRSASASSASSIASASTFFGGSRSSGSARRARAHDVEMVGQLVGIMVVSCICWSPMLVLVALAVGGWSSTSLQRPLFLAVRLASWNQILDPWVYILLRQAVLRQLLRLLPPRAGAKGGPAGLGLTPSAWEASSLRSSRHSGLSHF
(§2) Kd values for [3H]-PGE2 binding to each receptor are determined by saturation binding studies or homologous competition. Compounds are tested in a 96-well format using a three-fold dilution series to generate a 10-point curve. […] The membranes are harvested by filtration (TomTek harvester), washed 4 times with cold buffer (10 mM MES pH 6.0 with KOH, 10 mM MgCl2), dried in a 60° C. oven, and the radioactivity is quantified as counts per minute (CPM) using a TopCount detector. […]

In experiment [1] the target is T1, human EP4 (Homo sapiens (Human), UniProt P35408). Nature of the experiment: In vitro antagonist activity in human whole blood (reversal of PGE2 inhibition of LPS-induced TNFα production). Type of experiment: cell-based. The conditions noted are these: read-out: IC50 measured at human EP4, human blood TNFα induction assay.
Target sequence in this assay (P35408 whole entry, looked up, canonical isoform): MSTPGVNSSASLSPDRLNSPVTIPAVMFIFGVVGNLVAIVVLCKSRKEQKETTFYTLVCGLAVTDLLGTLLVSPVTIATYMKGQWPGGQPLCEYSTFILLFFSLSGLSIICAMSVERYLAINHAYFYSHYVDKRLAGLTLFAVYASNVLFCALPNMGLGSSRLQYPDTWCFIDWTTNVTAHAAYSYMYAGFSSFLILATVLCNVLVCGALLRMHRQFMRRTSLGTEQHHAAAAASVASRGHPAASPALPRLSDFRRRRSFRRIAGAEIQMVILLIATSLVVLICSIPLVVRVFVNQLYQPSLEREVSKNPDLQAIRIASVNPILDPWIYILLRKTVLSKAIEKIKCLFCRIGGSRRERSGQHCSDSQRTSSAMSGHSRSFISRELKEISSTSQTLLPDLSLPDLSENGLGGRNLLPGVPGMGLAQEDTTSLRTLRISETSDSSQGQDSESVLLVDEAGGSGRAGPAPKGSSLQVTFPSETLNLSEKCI
Description: Blood is collected from normal volunteer donors into sodium heparin vacutainer tubes. Donors have not taken NSAIDs or celecoxib within 48 hours or glucocorticoids within two weeks of the donation. All tubes/donor are pooled into 50 mL Falcon conical centrifuge tubes and 98 μL/well is distributed into 96-well tissue culture plates (Falcon 3072). […] The plates are incubated for 20-24 hours at 37° C. in a 5% CO2 humidified atmosphere. The plates are centrifuged at 1800×g, 10 minutes at 22° C., in an Eppendorf 5810R centrifuge. Plasma is removed from the cell layer and is transferred to v-bottom polypropylene plates. TNFα levels in 2 μL plasma are quantified by a commercially available enzyme immunoassay (R&D Systems DY210), using Immulon 4 HBX plates (Thermo 3855) and 3,3′,5,5′ tetramethylbiphenyl-4,4′-diamine substrate (KPL 50-76-03). The plates are read at A450-A650 on a plate reader (Molecular Devices Versamax) using SOFTmaxPRO (v. 4.3.1) software. IC50s are calculated using Graphpad Prism (v. 4) nonlinear regression, sigmoidal dose response curve fitting. Results are expressed as the geometric mean±standard deviation; n=number of independent determinations.
A further experiment deals with human EP3 (isoform VI) (Homo sapiens, UniProt P43115). Put plainly: In vitro binding to human EP3, [3H]-PGE2 displacement on membranes. Particulars: HEK293 membranes, n = 1, read-out: hEP3, Ki. The protocol:
as §1, with “-80°” for “−80°”, “CompleteTM,” for “Complete™,”, “498). Kd values for [3H]-PGE2 binding to each receptor are determined by saturation binding studies or homologous competition. Compounds are tested in a 96-well format using a three-fold dilution series to generate a 10-point curve. […] The membranes are harvested by filtration (TomTek harvester), washed 4 times with cold buffer (10 mM MES pH 6.0 with KOH, 10 mM MgCl2), dried in a 60° C. oven, and the radioactivity is quantified as counts per minute (CPM) using a TopCount detector. […]” for “498).”

A further experiment deals with human EP2 (Homo sapiens (Human), UniProt P43116). Nature of the experiment: In vitro binding to human EP2, [3H]-PGE2 displacement on membranes. The conditions noted are these: HEK293 membranes, n = 1, read-out: hEP2, Ki. The protocol: as §1, §2
human EP2, sequence (P43116 whole entry): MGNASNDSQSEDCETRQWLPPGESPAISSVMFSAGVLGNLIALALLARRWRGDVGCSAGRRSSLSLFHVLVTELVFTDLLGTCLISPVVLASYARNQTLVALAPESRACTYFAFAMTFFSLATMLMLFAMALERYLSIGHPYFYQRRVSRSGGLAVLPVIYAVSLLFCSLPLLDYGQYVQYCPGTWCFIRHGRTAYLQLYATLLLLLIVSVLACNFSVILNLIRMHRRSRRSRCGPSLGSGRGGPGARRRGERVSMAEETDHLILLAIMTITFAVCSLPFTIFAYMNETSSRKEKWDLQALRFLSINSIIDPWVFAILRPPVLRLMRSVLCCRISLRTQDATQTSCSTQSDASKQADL
The target in experiment [2] is T1, human EP4. Put plainly: In vitro human EP4 functional antagonist activity (PGE2-stimulated cAMP, HTRF). Type of experiment: cell-based. The conditions noted are these: read-out: IC50 measured at human EP4. The source says: The raw data are converted to cAMP amount (pmole/well) using a cAMP standard curve generated for each experiment.
Target sequence in this assay (P35408 whole entry, canonical isoform): as the sequence (P35408 whole entry, looked up, canonical isoform) above
Experiment [3] deals with T1, human EP4. Nature of the experiment: In vitro binding to human EP4, [3H]-PGE2 displacement on membranes. Particulars: HEK293 membranes, n = 7, read-out: hEP4, Ki.
Target sequence in this assay (P35408 whole entry, looked up, canonical isoform): as above
Description: Compounds are tested in a 96-well format using a three-fold dilution series to generate a 10-point curve. […] The binding reaction is performed in 200 μL MES buffer (10 mM MES pH 6.0 with KOH, 10 mM MgCl2 and 1 mM EDTA) using 0.5 mL polystyrene 96-well deep-well plates. […] The membranes are harvested by filtration (TomTek harvester), washed 4 times with cold buffer (10 mM MES pH 6.0 with KOH, 10 mM MgCl2), dried in a 60° C. oven, and the radioactivity is quantified as counts per minute (CPM) using a TopCount detector. […] Data are analyzed using a 4-parameter nonlinear logistic equation (ABase Equation 205) as shown: y=(A+((B−A)/(1+((C/x)^D)))) where, y=% specific inhibition, A=bottom of the curve; B=top of the curve; C=relative IC50 concentration causing 50% inhibition based on the range of the data from top to bottom; D=Hill, Slope=slope of the curve. Ki conversion from IC50 Values (Ki=IC50/(1+[L]/Kd) where [L] is the ligand concentration).

human EP3 (isoform VI), sequence (P43115 whole entry, looked up, canonical isoform): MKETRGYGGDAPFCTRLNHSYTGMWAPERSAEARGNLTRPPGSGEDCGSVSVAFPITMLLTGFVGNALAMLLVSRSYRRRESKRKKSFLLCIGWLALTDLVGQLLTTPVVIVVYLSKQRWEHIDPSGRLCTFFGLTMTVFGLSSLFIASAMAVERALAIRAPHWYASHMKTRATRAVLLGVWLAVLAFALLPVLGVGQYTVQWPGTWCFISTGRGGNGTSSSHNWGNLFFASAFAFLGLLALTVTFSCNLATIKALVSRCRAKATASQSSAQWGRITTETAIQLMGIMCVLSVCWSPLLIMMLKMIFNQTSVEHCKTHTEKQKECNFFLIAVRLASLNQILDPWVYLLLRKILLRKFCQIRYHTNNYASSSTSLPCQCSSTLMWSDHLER
Description for rat EP4: To test EP4 antagonist compounds in rEP4 cells, thaw the frozen cells and then resuspend cells in cAMP assay buffer. The cAMP buffer is made by HBSS without Phenol Red (Hyclone, SH30268) supplemented with 20 mM HEPES (Hyclone, SH30237), 0.1% BSA (Gibco, 15260) and 125 μM IBMX (Sigma, 15879). The cells are plated into 96-well half area flat-bottom polystyrene black plates (Costar 3694). […] The cAMP levels generated from the cells are quantified by a cAMP HTRF assay kit (Cisbio 62AM4PEC). The plates are read on an EnVision plate reader using HTRF optimized protocol (PerkinElmer). IC50's are calculated using Graphpad Prism (v. 4) nonlinear regression, sigmoidal dose response curve fitting.

For `Cc1ccc(N2CCC(O)CC2)nc1C(=O)Nc1c(C)cc(C(=O)O)cc1C` [Example 1, 4-[[6-(4-hydroxy-1-piperidyl)-3-methyl-pyridine-2-carbonyl]amino]-3,5-dimethyl-benzoic acid], the IC50 at rat EP4 is 12 nM; on human EP4 [1] it was 123 ± 81 nM; at human EP4 [2], 5.6 ± 2.8 nM. Further, the Ki on human EP1 was above 17500 nM; on human EP3 (isoform VI), above 14000 nM; on human EP2 it was above 18900 nM; at human EP4 [3], 76 ± 47 nM.
